The values that follow come from patent US9475750B2, “Phenylketone carboxylate compounds and pharmaceutical uses thereof” (PROMETIC BIOSCIENCES INC., priority 2010, dated 2016).

A word on the inhibition: it is the relative decrease from the control value, in per cent. The low end stands for little suppression, the high end for strong suppression. Broadly, the melting point is the temperature of the solid-liquid transition.

Entries after “also recorded” stand apart in the source; their conditions may differ.

The subject of data set [1] is LPS-stimulated RAW264.7 (macrophage-like) cells. In words: IL-12 production on LPS-stimulated RAW264.7 cells (ELISA). Format: cell-based. To be noted: in the presence of LPS. The method, then: The effect of selected compounds on IL-12 production was undertaken in RAW264.7 (macrophage-like) cells. RAW264.7 cells were cultured with 100 ng/mL of LPS in presence or absence of compounds for 21 h in a humidified atmosphere of 95% air-5% carbon dioxide at 37° C. IL-12 concentration in the culture medium was measured using the IL-12 ELISA according to the manufacturer (BD Biosciences) recommendations.
(An ELISA detects its analyte on a solid surface through an enzyme-linked reagent.)

Data set [2] concerns Normal Human Dermal Fibroblasts (NHDF). Kind of data set: TGF-β induced CTGF production on normal human dermal fibroblasts (ELISA). Format: cell-based. To be noted: 10 ng/mL TGF-β, 48 h. The method, then:
The effect of selected compounds on CTGF production was undertaken in NHDF. Cells were cultured in DMEM (0.5% FBS) with or without 10 ng/mL of TGF-β for 48 h in a humidified atmosphere of 95% air-5% carbon dioxide at 37° C. CTGF production in the culture medium was measured using the CTGF ELISA according to the manufacturer (Prepotech) recommendations. Table 3 represents the effect of selected representative compounds on the inhibition of TGF-βCTGF production in normal human dermal fibroblast (NHDF).

Data set [3] relates to doxorubicin-induced nephrotoxicity mouse model. Kind of data set: Renal protection in doxorubicin-induced nephrotoxicity model. Type of data set: in vivo, C57BL/6 mice. To be noted: for serum albumin: oral prophylactic treatment day -3 to 10, doxorubicin 10 mg/kg iv day 0, day 11 (FIG. 2). The procedure: C57BL/6 mice (6 to 10 week old) were treated with compounds prophylacticly from day −3 to day 10. Nephrotoxicity was induced by an intravenous injection of 10 mg/kg of doxorubicin at day 0. Serum albumin was monitored at day 11.

Data set [4] has as its system cyclophosphamide immunosuppressed mice. Kind of data set: Chemoprotection in cyclophosphamide immunosuppressed mice. To be noted: 50 mg/kg oral day -3, -2, -1, cyclophosphamide 250 mg/kg iv day 0; for red bone marrow cell count: day +5 (FIG. 6); for white bone marrow cell count: day +5 (FIG. 7). Type of data set: in vivo, C57BL/6 mice. The procedure:
Female C57BL/6 mice, 6 to 8 week old, were immunosuppressed by treatment with 250 mg/kg of cyclophosphamide administered intravenously at day 0. To examine the immunoprotective effect of Compound I and Compound II, mice were pre-treated orally at day −3, −2 and −1 with 50 mg/kg of each compound. Mice were sacrificed at day +5 by cardiac puncture and cervical dislocation. Then, a gross pathological observation of the femurs (as a source of bone marrow cells) was recorded. After the sacrifice, tissues were crushed in PBS buffer and cells were counted on a hemacytometer.

For data set [5], the system named is 5/6-nephrectomized (NX) rats. Kind of data set: 5/6-nephrectomy model of kidney fibrosis. Format: in vivo, Wistar rats. The procedure: Male 6-week old Wistar rats were subjected to […] (5/6-NX) or sham operations. Under ketamine anesthesia (60 to 100 mg/kg, i.p.), two-thirds of the left kidney was removed on day 0 followed by the right total nephrectomy on day 7. Sham operated rats underwent exposition of the kidneys and removal of the perirenal fat. Animals that underwent the sham operation were given vehicle (saline) and were used as controls. 5/6-NX animals were treated by gastric gavage with the vehicle or Compound I administered daily at 10 and 50 mg/kg, respectively. Animals were treated from day 1 to 132 and were sacrificed at day 133. To evaluate renal function, creatinine clearance was measured at day 21 and every subsequent three weeks. Glomerular filtration rate (GFR) was then calculated. Serum urea, serum creatinine and kidney CTGF along with histological lesion score were also evaluated.

For a further data set, the system named is UUO rats. Kind of data set: Unilateral Ureteral Obstruction (UUO) rat model. Format: in vivo, Sprague-Dawley rats. The procedure:
The effect of treatment with Compound I was studied on the Unilateral Ureteral Obstruction (UUO) model, a model of kidney interstitial fibrosis. Sprague-Dawley rats were used at 6-8 weeks of age and 200-250 g in body weight. Rats were sedated by general anesthesia (isoflurane), then an incision was made in the left side of the back, and the left proximal ureter was exposed and triple-ligated. Sham-operated rats had their ureter exposed but not ligated. Rats were treated by oral gavage from day 1 to 13. Rats were sacrificed on day 14.

The subject of data set [6] is human proximal tubule epithelial cells (HK-2). In words: TGF-β induced epithelial to mesenchymal transition (EMT), real-time PCR. Format: cell-based. The method, then:
Further analysis was undertaken to determine the effect of Compound I on EMT. The effect of Compound I on TGF-β induced EMT was analyzed on human proximal tubule epithelial cells (HK-2). To assess the progression of EMT, the pro-epithelial marker E-cadherin and the mesenchymal/pro-fibrotic markers CTGF and collagen 1 were assayed by quantitative real-time PCR. To examine the prospective efficacy of Compound I in inhibiting TGF-β-induced EMT, we first verified the ability of TGF-β to induce EMT in HK-2 cells.
In general terms: Real-time PCR tracks product formation cycle by cycle.

The mark [7] stands for this setting: oral treatment, mRNA, dose-response.
[8] abbreviates: Compound alone, normal HK-2 cells.

For `CCCCCCCCC(Oc1ccc(C(=O)CCCCCCC)cc1)C(=O)[O-].[Na+]` (racemic) [Compound I, Sodium (RS)-2-[4-Octanoylphenoxy]decanoate], the “IL-12 production under inflammatory conditions” value in data set [1] was “increases IL-12 production in vitro (RAW.264 cells) only when inflammation is present”. Further, in data set [2] (7.5 μM), 7.5 µM produced 41% inhibition. In addition, the “histological micrographs of doxorubicin-induced lesions” value in data set [3] (FIG. 4) is listed as “protects the kidney against doxorubicin toxicity”. The serum albumin entry in data set [3] is given as “inhibits the decrease of serum albumin”. Further, in data set [3] (oral treatment, p<0.01 (FIG. 5)), the “serum CTGF” value is recorded as “significant inhibition of CTGF production in serum”. Further, the “histological kidney lesions score” value in data set [3] (prophylactic treatment, day 11, glomerular and tubular level (FIG. 3)) was “reduces the kidney lesions at the glomerular and tubular level”. In addition, in data set [4], the “red bone marrow cell count” value is “significant increase in red bone marrow cell count” and the “white bone marrow cell count” value is reported as “increase in white bone marrow cell count”. In addition, the “urinary excretion of MCP-1” value in data set [5] (10 mg/kg, day 21 to 105 (FIG. 13)) was “markedly reduced; also recorded: significantly decreased (from day 84)”. In addition, the proteinuria result in data set [5] (10 mg/kg, day 63 and day 84 (FIG. 10)) is listed as “reduction of proteinuria; also recorded: reduces proteinuria”. Moreover, in data set [5] (10 and 50 mg/kg oral, day 1 to day 132 (FIG. 11)), the serum urea result is “decreased serum urea”. Further, the “GFR expressed as percent of improvement” value in data set [5] (10 and 50 mg/kg oral, day 84 and day 105 (FIG. 9)) is “improvement of GFR at day 84 and day 105”. For the same compound, the “GFR expressed as percent of improvement (renal functions)” value in data set [5] (10 and 50 mg/kg oral, day 126 (FIG. 9)) is reported as “deteriorated but to a lesser extent than that observed in the non-treated animals”. Besides, in data set [5] (10 and 50 mg/kg, day 126 (FIG. 12)), the serum creatinine entry is reported as “decreased serum creatinine”. Also, the “interstitial and glomerular fibrosis/sclerosis (histology)” value in data set [5] (10 or 50 mg/kg (FIG. 15)) was “reduction of interstitial and glomerular fibrosis/sclerosis”. Besides, in data set [5] (oral 10 mg/kg), the “CTGF expression in the remnant kidney (real-time PCR)” value is reported as “decreases significantly”, the “TGF-β expression in the remnant kidney (real-time PCR)” value is on record as “decreases significantly”, the “collagen 1 expression in the remnant kidney (real-time PCR)” value is given as “decreases significantly” and the “α-SMA expression in the remnant kidney (real-time PCR)” value was “decreases significantly”. Besides, the “kidney CTGF expression (Northern blot)” value in data set [5] (oral 10 mg/kg (FIG. 16)) is reported as “reduction of connective tissue growth factor (CTGF) expression”. Moreover, the “need for Ringer's lactate solution over the period of treatment” value in data set [5] (oral 50 mg/kg) is “did not require Ringer's lactate solution”. Also, in data set [5] (oral 10 and 50 mg/kg (FIG. 17)), the survival rate result is reported as “increases the survival rate”. For the same compound, in data set [5] (oral 10 or 50 mg/kg, relative to untreated 5/6-NX group (FIG. 14)), the “kidney IL-12p40 level” value was “significant (p=0.04 at 10 mg/kg) increase in IL-12p40”. In addition, the GFR result in data set [5] (oral, day 126, p=0.08 (FIG. 8)) was “improvement of GFR”. For the same compound, the “kidney MCP-1” value in the data set with UUO rats (50 mg/kg (FIG. 19)) is on record as “significantly reduced”. In the data set with UUO rats (oral 10 and 50 mg/kg, day 1 to 13 (FIG. 18)), the serum albumin entry was “prevented”. In the data set on UUO rats (oral treatment, mRNA), the “TGF-β expression in the kidney” value is given as “reduced TGF-β expression”. In addition, in the data set with UUO rats (setting [7]), the “expression of CTGF in the kidney” value is reported as “significant dose-response inhibition” and the “expression of collagen 1 in the kidney” value was “significant dose-response inhibition”. In data set [6] (setting [8]), the “basal expression of CTGF” value is listed as “downregulate basal expression” and the “basal expression of collagen 1” value is “downregulate basal expression”. For the same compound, the E-cadherin transcript expression result in data set [6] (TGF-β induced EMT cells (FIG. 20)) is “upregulation of E-cadherin”. Further, in data set [6] (TGF-β induced EMT cells (FIG. 21)), the CTGF transcript expression result is reported as “downregulation”. In addition, the “collagen 1 transcript expression” value in data set [6] (TGF-β induced EMT cells (FIG. 22)) is given as “downregulation”.
On to `CCCCCCCC(=O)c1ccc2c(c1)CC(C(=O)O)C2` (racemic) [Compound III, Sodium (RS)-5-Octanoylindane-2-carboxylate], for which, in data set [2] (62.5 μM), testing at 62.5 µM gave an inhibition of 45%.
Compound `CCCCCCCCC(Oc1ccc(C(=O)CCC)cc1)C(=O)[O-].[Na+]` (racemic) [Compound IX, Sodium (RS)-2-[4-Butyrylphenoxy]decanoate] registered a melting point of 262 to 278 °C.
Still for that read-out and setting: under `CCCCCCCC(=O)c1ccc(OC(CCCCCC)C(=O)[O-])cc1.[Na+]` (racemic) [Compound VIII, Sodium (RS)-2-[4-Octanoylphenoxy]octanoate] stands 165 to 170 °C.
In turn, `CCCCCCCCC(Oc1ccc(C(=O)CCCCC)cc1)C(=O)[O-].[Na+]` (racemic) [Compound X, Sodium (RS)-2-[4-Hexanoylphenoxy]decanoate] gave a melting point of 275 to 280 °C.
Regarding `CCCCCCCC(=O)c1cccc2c1CC(C(=O)O)C2` (racemic) [Compound XXVI, Sodium (RS)-4-Octanoylindane-2-carboxylate], in data set [2] (100 μM), testing at 100 µM gave an inhibition of 59%.
Turning to `CCCCCCCC(=O)c1cccc(C(=O)[O-])c1.[Na+]` [Compound II, Sodium 3-Octanoylbenzoate], in data set [3], the serum albumin entry was “inhibits the decrease of serum albumin”. In data set [4], the “red bone marrow cell count” value is recorded as “significant increase in red bone marrow cell count” and the “white bone marrow cell count” value is listed as “increase in white bone marrow cell count”.
